# Earlier results as cited in patent publication US20080139517A1, “Methods of treating age associated memory impairment (AAMI), mild cognitive impairment (MCI), and dementias with cell cycle inhibitors” (priority 2002, published 2008).
# How the values were obtained:
# [1] = test system: ERK-1 and ERK-2 (p44 and p42 MAPK); settings: in response to hypoxia/reoxygenation injury
# leukemia cells = settings: G1 phase
# cdk4 = cdk4 (Homo sapiens, UniProt P11802)
# moderate to severe AD = settings: in vivo
# vascular dementia = settings: in vivo
# human cancer cells = settings: demonstrated in non-small-cell lung cancer cells
# [2] = children
# PC12 cells = settings: presence of nerve growth factor
# Chain of cdk4 (P11802 whole entry, species assumed): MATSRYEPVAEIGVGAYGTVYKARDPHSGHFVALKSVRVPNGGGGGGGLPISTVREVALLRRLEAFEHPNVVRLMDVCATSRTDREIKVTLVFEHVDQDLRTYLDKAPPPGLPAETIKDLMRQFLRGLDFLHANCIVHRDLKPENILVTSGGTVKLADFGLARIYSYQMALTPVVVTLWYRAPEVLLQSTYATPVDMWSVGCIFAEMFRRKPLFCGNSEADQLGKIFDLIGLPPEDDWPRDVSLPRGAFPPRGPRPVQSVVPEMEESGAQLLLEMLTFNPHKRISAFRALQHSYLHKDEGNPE
# Chain of cdk4 (P24385 whole entry partner, species assumed): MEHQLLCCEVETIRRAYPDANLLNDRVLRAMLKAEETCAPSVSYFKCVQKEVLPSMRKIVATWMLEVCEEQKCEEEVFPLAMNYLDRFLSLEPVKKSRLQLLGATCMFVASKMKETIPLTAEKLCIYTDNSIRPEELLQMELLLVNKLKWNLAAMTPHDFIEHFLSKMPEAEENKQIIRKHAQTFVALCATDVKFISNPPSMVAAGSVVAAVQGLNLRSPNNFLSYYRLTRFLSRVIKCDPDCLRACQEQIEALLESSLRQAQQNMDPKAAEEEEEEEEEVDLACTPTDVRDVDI
smiles,measurement,setting,value
"CC(=O)Oc1ccccc1C(=O)O [Aspirin, Acetylsalicylic acid]",ERK-1 and ERK-2 (p44 and p42 MAPK) activation,[1],inhibit
"NS(=O)(=O)c1ccc(S(=O)(=O)Nc2cccc3c(Cl)c[nH]c23)cc1 [E7070, N-(3-chloro-7-indolyl)-1,4-benzenedisulfonamide]",cell cycle progression of leukemia cells,leukemia cells,block
O=C1c2ccccc2-[n+]2ccc3c([nH]c4ccccc43)c21 [Fascaplysin],cdk4 inhibition,cdk4,specifically inhibit
C[C@]12N[C@H](Cc3ccccc31)c1ccccc12 [MK801],excitotoxic neuronal death,neuronal death,blocks
CC12CC3CC(C)(C1)CC(N)(C3)C2 [Memantine],treatment of moderate to severe AD,moderate to severe AD,useful
same,treatment of vascular dementia,vascular dementia,useful
Cn1cncc1[C@@](N)(c1ccc(Cl)cc1)c1ccc2c(c1)c(-c1cccc(Cl)c1)cc(=O)n2C [R115777],p21 ras activation,p21 ras,prevent
NC(=O)N1CCC(CC(=O)N2CCC([C@H]3c4ncc(Br)cc4CCc4cc(Cl)cc(Br)c43)CC2)CC1 [SCH66336],p21 ras activation,p21 ras,prevent
"CCCC(CCC)C(=O)O [Valproate, valproic acid]",cell cycle arrest in glioma cell lines,glioma cell lines,induce cell cycle arrest
"C[C@@H]1C[C@H]1[C@H](C)C[C@@H](O)[C@@]1([C@H]2CC[C@H]3[C@@H]4CC[C@H]5CC(=O)CC[C@]5(C)[C@H]4C[C@@H](O)[C@]23C)CO1 [YTA0040, Aragusterol A]",cell cycle arrest of human cancer cells,human cancer cells,arrested human cancer cells cycle in the G1 phase
CN1CC[C@H](c2c(O)cc(O)c3c(=O)cc(-c4ccccc4Cl)oc23)[C@H](O)C1 [flavopiridol],excitotoxic neuronal death,neuronal death,blocks
C=C(C)[C@H]1CN[C@H](C(=O)O)[C@H]1CC(=O)O [kainic acid],cyclin D1 expression,cyclin D1,upregulates
CN(Cc1cnc2nc(N)nc(N)c2n1)c1ccc(C(=O)N[C@@H](CCC(=O)O)C(=O)O)cc1 [methotrexate],cognitive impairment associated with treatment,[2],learning disabilities
CC[C@H](CO)Nc1nc(NCc2ccccc2)c2ncn(C(C)C)c2n1 [roscovitine],cell cycle arrest,cell cycle,cell cycle arrest at the G1 phase
CCCC(=O)[O-].[Na+] [sodium butyrate],expression of late G1 phase genes such as cdc 2,cdc 2,inhibits
C=CC[C@@H]1/C=C(\C)C[C@H](C)C[C@H](OC)[C@H]2O[C@@](O)(C(=O)C(=O)N3CCCC[C@H]3C(=O)O[C@H](/C(C)=C/[C@@H]3CC[C@@H](O)[C@H](OC)C3)[C@H](C)[C@@H](O)CC1=O)[C@H](C)C[C@@H]2OC [tacrolimus],neurite outgrowth,PC12 cells,little effect
